Type in all cases: in vivo
The test system of experiment [1] is Haemaphysalis longicornis. In words: Test Example 7: treated filter paper pouch test on ticks. Particulars: filter paper treated with 100 mg/m^2, non-blood-sucking nymphal ticks, 10 ticks/group, two days after; for pest or weed control at 100 mg/m2: Haemaphysalis longicornis, 48 h, read-out: pest death rate. The procedure:
Five milligrams of any one of the present compounds (4), (7), (18t), (22), (25t), (26t), (29), (30), (31), (32), (33), (34), (35), (40), (41), (42), (43), (44) and (55) was dissolved in 10 mL of acetone. One milliliter of the acetone solution was uniformly applied on one side of a filter paper (TOYO No. 2; 5×10 cm), so that the filter paper having a surface area of 50 cm^2 was treated with 100 mg/m^2 of the present compound. After drying, the filter paper was folded in two and its edges were clipped to make a pouch. Test ticks (non-blood-sucking nymphal ticks, Haemaphysalis longicornis, 10 ticks/group) were put into the pouch, and the pouch was sealed with clips. Two days after, the number of surviving ticks was examined and the death rate was calculated.

The next experiment concerns Musca domestica. The experiment in a line: Test Example 4: filter paper/sucrose bait test on Musca domestica. The following applies: 24 h, read-out: pest death rate. The procedure:
A formulation of any one of the present compounds (1), (4), (5), (7), (11), (12), (13), (18t), (18c), (19), (20), (21), (22), (24), (25t), (25c), (26t), (26c), (27), (29), (30), (31), (32), (33), (34), (35), (40), (41), (43), (49), (50) and (55) obtained according to Formulation Example 36 was diluted with water so that the active ingredient concentration was 500 ppm to obtain a test solution.
A filter paper having a diameter of 5.5 cm was spread on the bottom of a polyethylene cup having a diameter of 5.5 cm and 0.7 ml of the test solution was added dropwise onto the filter paper. As a bait 30 mg of sucrose was uniformly placed on the filter paper. Into the polyethylene cup, 10 female imagoes of Musca domestica were released and the cup was sealed with a lid. After 24 hours, the number of surviving Musca domestica was examined and the death rate of the pest was calculated.

The subject of another experiment is Blattalla germanica. In words: Test Example 5: filter paper/sucrose bait test on Blattalla germanica. Particulars: for pest or weed control at 500 ppm: 144 h, read-out: pest death rate. The procedure: A formulation of any one of the present compounds (4), (5), (7), (12), (13), (18t), (18c), (22), (25t), (25c), (26t), (26c), (29), (30), (31), (32), (33), (34), (40), (41), (43), (49) and (55) obtained according to Formulation Example 36 was diluted with water so that the active ingredient concentration was 500 ppm to obtain a test solution.
A filter paper having a diameter of 5.5 cm was spread on the bottom of a polyethylene cup having a diameter of 5.5 cm and 0.7 ml of the test solution was added dropwise onto the filter paper. As a bait 30 mg of sucrose was uniformly placed on the filter paper. Into the polyethylene cup, 2 male imagoes of Blattalla germanica were released and the cup was sealed with a lid. After 6 days, the number of surviving Blattalla germanica was examined and the death rate of the pest was calculated.

The subject of the next experiment is Culex pipiens pallens. In words: Test Example 6: larvae of Culex pipiens pallens in treated water. Particulars: 24 h, read-out: pest death rate. As for the experimental part: A formulation of any one of the present compounds (7), (11), (12), (13), (17), (18t), (18c), (22), (24), (25t), (25c), (26t), (26c), (27), (29), (33), (34), (35), (36), (38), (40), (41), (43), (47), (49), (50) and (55) obtained according to Formulation Example 36 was diluted with water so that the active ingredient concentration was 500 ppm to obtain a test solution.
To 100 mL of ion-exchanged water, 0.7 ml of the test solution was added (active ingredient concentration: 3.5 ppm). Into the solution, 20 last-instar larvae of Culex pipiens pallens were released. One day after, the number of surviving Culex pipiens pallens was examined and the death rate of the pest was calculated.

The record followed here is US8247596B2 (Sumitomo Chemical Company, Limited, priority 2007, dated 2012).

Consider `CCCC(C#N)(C1CCC(=NOC)CC1)S(=O)(=O)CCC(F)(F)F` (centres unmarked) [present compound (42), 2-[4-(methoxyimino)cyclohexyl]-2-(3,3,3-trifluoropropylsulfonyl)pentanenitrile], for which the pest or weed control at 100 mg/m2 in experiment [1] was found to be 90%.
As to `FC(F)(F)CCSCC1CCC2(CC1)OCCO2` [present compound (1)], the pest or weed control at 500 ppm in the experiment with Musca domestica was not below 90%.
On the same count and under the same terms, as for `N#CC1CCC(CS(=O)(=O)CCC(F)(F)F)CC1` (centres unmarked) [present compound (20), 1-cyano-4-(3,3,3-trifluoropropylsulfonylmethyl)cyclohexane], the figure is not below 90%.
In the case of `O=S(=O)(CCC(F)(F)F)CC1CCC(F)(F)CC1` [present compound (4), 1,1-difluoro-4-(3,3,3,-trifluoropropylsulfonylmethyl)cyclohexanone], the pest or weed control at 500 ppm is not below 90% with Musca domestica and 100% in the experiment on Blattalla germanica. Further, in experiment [1], the pest or weed control at 100 mg/m2 was found to be 90%.
For the compound `CC1CCC(C(C#N)S(=O)(=O)CCC(F)(F)F)CC1` (centres unmarked) [present compound (49), 2-(4-methylcyclohexyl)-2-(3,3,3-trifluoropropylsulfonyl)acetonitrile], the pest or weed control at 3.5 ppm with Culex pipiens pallens was not below 95%. Moreover, the pest or weed control at 500 ppm was not below 90% in the experiment with Musca domestica and 100% with Blattalla germanica.
For the compound `C#CC1(O)CCC(C(C#N)S(=O)(=O)CCC(F)(F)F)CC1` (centres unmarked) [present compound (30), 2-(4-ethynyl-4-hydroxycyclohexyl)-2-(3,3,3-trifluoropropylsulfonyl)acetonitrile], the pest or weed control at 500 ppm in the experiment with Musca domestica was not below 90%; with Blattalla germanica, 100%. For the same compound, the pest or weed control at 100 mg/m2 in experiment [1] is 90%.
Regarding `N#CC(C1CCCCC1)S(=O)(=O)CCC(F)(F)F` (centres unmarked) [present compound (47), 2-cyclohexyl-2-(3,3,3-trifluoropropylsulfonyl)acetonitrile], in the experiment on Culex pipiens pallens, the pest or weed control at 3.5 ppm was not below 95%.
On to `C#CC1(F)CCC(C(C#N)S(=O)(=O)CCC(F)(F)F)CC1` (centres unmarked) [present compound (31), 2-(4-ethynyl-4-fluorocyclohexyl)-2-(3,3,3-trifluoropropylsulfonyl)acetonitrile], for which the results for the pest or weed control at 500 ppm with Musca domestica and in the experiment on Blattalla germanica were not below 90% and 100%, respectively. In experiment [1], the pest or weed control at 100 mg/m2 is 90%.
Consider `O=S(=O)(CCC(F)(F)F)CC1CCC(C=C(Br)Br)CC1` (centres unmarked) [present compound (17), 1-(2,2-dibromovinyl)-4-(3,3,3-trifluoropropylsulfonylmethyl)cyclohexane], for which the pest or weed control at 3.5 ppm in the experiment on Culex pipiens pallens was not below 95%.
Turning to `O=S(=O)(CCC(F)(F)F)CC1CC=C(F)CC1` (centres unmarked) [present compound (5)], the values for the pest or weed control at 500 ppm in the experiment with Musca domestica and in the experiment with Blattalla germanica were not below 90% and 100%, respectively.
As for `COC(=O)CCC#CC1CCC(CS(=O)(=O)CCC(F)(F)F)CC1` (centres unmarked) [present compound (19), 5-[4-(3,3,3-trifluoropropylsulfonylmethyl)cycohexanyl]-4-pentynic acid methyl ester], in the experiment on Musca domestica, the pest or weed control at 500 ppm was not below 90%.
On to `C#CC1CCC=CC1C(C#N)S(=O)(=O)CCC(F)(F)F` (centres unmarked) [present compound (32), 2-(4-ethynyl-cyclohexen-3-yl)-2-(3,3,3-trifluoropropylsulfonyl)acetonitrile], for which the pest or weed control at 500 ppm was not below 90% in the experiment on Musca domestica and 100% in the experiment with Blattalla germanica. The pest or weed control at 100 mg/m2 in experiment [1] came out at 90%.
For the compound `C=CC(C)C(C#N)(C1CCC(=NOC)CC1)S(=O)(=O)CCC(F)(F)F` (centres unmarked) [present compound (43), 2-[4-(methoxyimino)cyclohexyl]-3-methyl-2-(3,3,3-trifluoropropylsufonyl)-4-pentenenitrile], the pest death rate in the experiment with Blattalla germanica (500 ppm, 0.7 ml on filter paper, 2 male imagoes of Blattalla germanica, after 6 days) worked out at 100%; in experiment [1], 90%.
`CC(C)(C)ON=C1CCC(C(C#N)S(=O)(=O)CCC(F)(F)F)CC1` (centres unmarked) [present compound (36), 2-[4-(t-butoxyimino)cyclohexyl]-2-(3,3,3-trifluoropropylsulfonyl)acetonitrile]: in the experiment with Culex pipiens pallens, the pest or weed control at 3.5 ppm is not below 95%.
As to `COC(=O)C(F)(C1CCC(F)(F)CC1)S(=O)(=O)CCC(F)(F)F` (centres unmarked) [present compound (12), methyl 2-(4,4-difluorocyclohexyl)-2-fluoro-2-(3,3,3-trifluoropropylsulfonyl)acetate], in the experiment on Culex pipiens pallens, the pest or weed control at 3.5 ppm was not below 95%. Moreover, the pest or weed control at 500 ppm in the experiment on Musca domestica is not below 90%; in the experiment on Blattalla germanica, 100%.
Consider `COC(=O)C(C1CCC(F)(F)CC1)S(=O)(=O)CCC(F)(F)F` (centres unmarked) [present compound (11), methyl 2-(4,4-difluorocyclohexyl)-2-(3,3,3-trifluoropropylsulfonyl)acetate], for which the pest or weed control at 3.5 ppm in the experiment with Culex pipiens pallens was not below 95%. For the same compound, the pest or weed control at 500 ppm with Musca domestica is not below 90%.
Consider `CCON=C1CCC(C(C#N)S(=O)(=O)CCC(F)(F)F)CC1` (centres unmarked) [present compound (35), 2-[4-(ethoxyimino)cyclohexyl]-2-(3,3,3-trifluoropropylsufonyl)acetonitrile], for which the pest death rate in experiment [1] came out at 90%.
Consider `C#CC1CCC(CSCCC(F)(F)F)CC1` (centres unmarked) [present compound (25c)], for which the pest or weed control at 3.5 ppm with Culex pipiens pallens is not below 95%. The results for the pest or weed control at 500 ppm in the experiment with Musca domestica and in the experiment on Blattalla germanica were not below 90% and 100%, respectively.
As to `FC(F)(F)CCSCC1CCC(C=C(Br)Br)CC1` (centres unmarked) [present compound (24), 1-(2,2-dibromovinyl)-4-(3,3,3-trifluoropropylthiomethyl)cyclohexane], the pest or weed control at 3.5 ppm in the experiment with Culex pipiens pallens is not below 95%. Further, in the experiment on Musca domestica, the pest or weed control at 500 ppm was not below 90%.
In the case of `N#CC(C1CCC2(CC1)OCCO2)S(=O)(=O)CCC(F)(F)F` (centres unmarked) [present compound (27), 2-(1,4-dioxaspiro[4.5]dec-8-yl)-2-(3,3,3-trifluoropropylsulfonyl)acetonitrile], in the experiment on Culex pipiens pallens, the pest or weed control at 3.5 ppm was not below 95%. Moreover, the pest or weed control at 500 ppm in the experiment on Musca domestica was not below 90%.
On to `C#CC(C)C(C#N)(C1CCC(=NOC)CC1)S(=O)(=O)CCC(F)(F)F` (centres unmarked) [present compound (44), 2-[4-(methoxyimino)cyclohexyl]-3-methyl-2-(3,3,3-trifluoropropylsulfonyl)-4-pentynenitrile], for which, in experiment [1], the pest or weed control at 100 mg/m2 worked out at 90%.
As for `CC1(C)CCC(C(C#N)S(=O)(=O)CCC(F)(F)F)CC1` (centres unmarked) [present compound (50), 2-(4,4-dimethylcyclohexyl)-2-(3,3,3-trifluoropropylsulfonyl)acetonitrile], in the experiment with Culex pipiens pallens, the pest or weed control at 3.5 ppm is not below 95%. Further, the pest or weed control at 500 ppm in the experiment with Musca domestica was not below 90%.
On to `CON=C1CCC(CS(=O)(=O)CCC(F)(F)F)CC1` (centres unmarked) [present compound (21), 4-(3,3,3-trifluoropropylsulfonylmethyl)-cyclohexanone O-methyloxime], for which the pest or weed control at 500 ppm with Musca domestica was not below 90%.
Turning to `NC(=O)C(F)(C1CCC(F)(F)CC1)S(=O)(=O)CCC(F)(F)F` (centres unmarked) [present compound (13), 2-(4,4-difluorocyclohexyl)-2-fluoro-2-(3,3,3-trifluoropropylsulfonyl)acetamide], the pest or weed control at 3.5 ppm in the experiment on Culex pipiens pallens was not below 95%. Besides, the pest or weed control at 500 ppm with Musca domestica is not below 90%; with Blattalla germanica, 100%.
As for `N#CC(C1CCC(=NOCc2ccccc2)CC1)S(=O)(=O)CCC(F)(F)F` (centres unmarked) [present compound (38), 2-[4-(O-benzylhydroxylimino)cyclohexyl]-2-(3,3,3-trifluoropropylsulfonyl)acetonitrile], the pest or weed control at 3.5 ppm in the experiment with Culex pipiens pallens was not below 95%.
